The record followed here is patent US6506766B1 (Abbott Laboratories, priority 1998, dated 2003).

Structures are written as SMILES.

Assay [1] addresses T1, human glucocorticoid receptor-α [GRX] isoform (Homo sapiens, UniProt P04150).
T1 construct: host or cells: insect SF21 cells (baculovirus)
T1 sequence (P04150 1-777): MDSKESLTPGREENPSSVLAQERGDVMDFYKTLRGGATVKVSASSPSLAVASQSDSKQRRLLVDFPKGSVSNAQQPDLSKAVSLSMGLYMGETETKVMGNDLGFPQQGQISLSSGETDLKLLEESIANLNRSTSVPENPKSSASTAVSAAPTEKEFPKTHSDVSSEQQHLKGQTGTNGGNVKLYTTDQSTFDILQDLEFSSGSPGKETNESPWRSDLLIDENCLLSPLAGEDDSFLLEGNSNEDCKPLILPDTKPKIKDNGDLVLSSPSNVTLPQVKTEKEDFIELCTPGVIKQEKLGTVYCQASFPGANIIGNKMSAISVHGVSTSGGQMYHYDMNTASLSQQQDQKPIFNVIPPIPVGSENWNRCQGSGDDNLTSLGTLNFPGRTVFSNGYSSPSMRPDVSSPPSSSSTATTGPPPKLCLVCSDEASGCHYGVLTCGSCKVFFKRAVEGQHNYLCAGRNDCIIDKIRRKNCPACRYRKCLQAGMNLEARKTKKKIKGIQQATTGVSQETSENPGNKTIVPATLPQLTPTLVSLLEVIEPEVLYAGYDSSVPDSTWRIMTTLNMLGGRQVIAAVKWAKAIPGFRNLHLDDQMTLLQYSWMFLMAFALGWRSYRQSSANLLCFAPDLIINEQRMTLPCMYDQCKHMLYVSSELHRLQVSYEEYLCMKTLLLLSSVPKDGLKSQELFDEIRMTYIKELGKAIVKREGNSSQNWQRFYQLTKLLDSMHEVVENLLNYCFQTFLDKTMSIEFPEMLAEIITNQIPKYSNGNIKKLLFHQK
Kind of assay: Radioligand binding with human glucocorticoid receptor cytosol ([3H]-dexamethasone competition). Conditions: GRX cytosol expressed in insect SF21 cells, [3H]-Dex ~0.9 nM, 4° C. overnight; Ki by Cheng-Prusoff, KL ~[…]; read-out: Ki (nM) GR.

Assay [2] has as its target T2, human progesterone receptor-A [PRA] isoform (Homo sapiens, UniProt P06401).
T2 construct: host or cells: insect SF21 cells (baculovirus)
T2 sequence (P06401 1-769 isoform P06401-2): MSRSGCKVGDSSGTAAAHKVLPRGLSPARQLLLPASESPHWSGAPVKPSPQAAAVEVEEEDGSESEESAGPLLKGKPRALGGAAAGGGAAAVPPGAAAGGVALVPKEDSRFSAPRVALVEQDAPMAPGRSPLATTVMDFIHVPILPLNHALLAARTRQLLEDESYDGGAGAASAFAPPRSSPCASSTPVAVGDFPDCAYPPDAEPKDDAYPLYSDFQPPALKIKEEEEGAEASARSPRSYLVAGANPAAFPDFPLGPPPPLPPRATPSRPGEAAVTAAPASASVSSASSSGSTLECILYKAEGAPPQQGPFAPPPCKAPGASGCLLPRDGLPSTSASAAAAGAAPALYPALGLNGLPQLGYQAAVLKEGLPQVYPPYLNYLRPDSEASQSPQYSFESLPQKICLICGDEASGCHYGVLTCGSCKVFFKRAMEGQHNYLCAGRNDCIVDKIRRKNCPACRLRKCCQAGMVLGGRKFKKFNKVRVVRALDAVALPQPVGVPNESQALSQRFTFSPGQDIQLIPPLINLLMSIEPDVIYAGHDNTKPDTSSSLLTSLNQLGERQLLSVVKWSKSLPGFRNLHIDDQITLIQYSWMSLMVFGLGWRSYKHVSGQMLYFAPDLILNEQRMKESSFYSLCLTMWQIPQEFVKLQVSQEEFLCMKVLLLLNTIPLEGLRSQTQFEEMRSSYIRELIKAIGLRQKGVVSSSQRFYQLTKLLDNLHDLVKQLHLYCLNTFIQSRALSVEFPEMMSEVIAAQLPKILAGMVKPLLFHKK
Kind of assay: Radioligand binding with human progesterone receptor cytosol ([3H]-progesterone competition). To be noted: PRA cytosol expressed in insect SF21 cells, [3H]Prog ~0.8 nM, 4° C. overnight; Ki by Cheng-Prusoff, KL ~4.5 nM; read-out: Ki (nM) PR.

Usually Ki stands for a measure of affinity in units of concentration, obtained from inhibition or displacement. As for `COc1c(O)ccc2c1-c1ccc3c(c1C(Cc1ccccc1F)O2)C(C)=CC(C)(C)N3` (stereo not shown) [Example 348, 2,5-Dihydro-9-hydroxy-10-methoxy-2,2,4-trimethyl-5-((2-fluorophenyl)methyl)-1H-[1]benzopyranol[3,4-f]quinoline], the Ki amounted to 0.89 nM in assay [1] and 171 nM in assay [2].
As to `C=Cc1cccc2c1-c1ccc3c(c1C(C1C=C(C)CCC1)O2)C(C)=CC(C)(C)N3` (stereo not shown) [Example 341], the Ki in assay [1] is 2.5 nM; in assay [2], no less than 10000 nM.
For `C=CCC1Oc2cccc(CO)c2-c2ccc3c(c21)C(C)=CC(C)(C)N3` (stereo not shown) [Example 77, 2,5-Dihydro-2,2,4-trimethyl-5-(2-propenyl)-1H-[1]benzopyrano[3,4-f]quinoline-10-methanol] the same measures were 1.6 nM and 173 nM.
In the case of `COc1cccc2c1-c1ccc3c(c1C(c1ccc(OCc4ccccc4)cc1)O2)C(C)=CC(C)(C)N3` (stereo not shown) [Example 98, 2,5-Dihydro-10-methoxy-2,2,4-trimethyl-5-[4-(phenylmethoxy)phenyl]-1H-[1]benzopyranol[3,4-f]quinoline], the inhibitory constant (Ki) in assay [1] was 9.8 nM; in assay [2], no less than 10000 nM.
For `COc1cccc2c1-c1ccc3c(c1C(CC(=O)NC1CC1)O2)C(C)=CC(C)(C)N3` (stereo not shown) [Example 65, N-Cyclopropyl-2,5-Dihydro-10-methoxy-2,2,4-trimethyl-1H-[1]benzopyrano[3,4-f]quinoline-5-acetamide] the same measures were 591 nM and no less than 10000 nM.
`CC1=CC(C)(C)Nc2ccc3c(c21)C(=Cc1ccccc1)Oc1ccc(O)c(Cl)c1-3` [Example 401, 9-Hydroxy-10-chloro-5-(phenylmethylene)-2,2,4-trlimethyl-1H-2,5-dihydro-[1]benzopyrano[3,4-f]quinoline]: the figures for the Ki in assay [1] and in assay [2] were 134 nM and 6080 nM, respectively.
For `COc1c(O)ccc2c1-c1ccc3c(c1[C@H]([C@@H]1C=CCCCC1)O2)C(C)=CC(C)(C)N3` [Example 246, (−)(5S,3′S)2,5-Dihydro-9-hydroxy-10-methoxy-2,2,4-trimethyl-5-(3-cycloheptenyl)-1H-[1]benzopyrano[3,4-f]quinoline] the same measures were 0.87 nM and 113 nM.
The matching figures for `COc1cccc2c1-c1ccc3c(c1[C@@H]([C@@H]1C=C(CO)CCC1)O2)C(C)=CC(C)(C)N3` [Example 156, (+) (5R,3′S) 2,5-Dihydro-10-methoxy-5-(1-hydroxymethyl-3-cyclohexenyl)-2,2,4-trimethyl-1H-[1]benzopyrano[3,4-f]quinoline]: 0.9 nM and 4100 nM.
The matching figures for `COc1cccc2c1-c1ccc3c(c1C(c1cc(C)cc(C(C)(C)O)c1)O2)C(C)=CC(C)(C)N3` (stereo not shown) [Example 111, 3-(2,5-Dihydro-10-methoxy-2,2,4-trimethyl-1H-[1benzopyrano3,4-f]quinolin-5-yl)5-trimethylbenzenemethanol]: 7.2 nM and no less than 10000 nM.
In the case of `CCC1=C[C@@H]([C@H]2Oc3ccc(O)c(OC)c3-c3ccc4c(c32)C(C)=CC(C)(C)N4)CCC1` [Example 277], the figures for the inhibition constant Ki in assay [1] and in assay [2] were 11.3 nM and 272 nM, respectively.
Turning to `COc1c(O)ccc2c1-c1ccc3c(c1C(c1cccc(OC(C)=O)c1)O2)C(C)=CC(C)(C)N3` (stereo not shown) [Example 395, 2,5-Dihydro-9-hydroxy-10-methoxy-2,2,4-trimethyl-5-(3-acetoxyphenyl)-1H-[1]benzopyrano[3,4-f]quinoline], the Ki in assay [1] was found to be 2.1 nM; in assay [2] it was 1210 nM.
The matching figures for `COc1cccc2c1-c1ccc3c(c1C(CC=C(C)C)O2)C(C)=CC(C)(C)N3` (stereo not shown) [Example 190, 2,5-Dihydro-10-methoxy-5-(3-methyl-2-butenyl)-2,2,4-trimethyl-1H-[1]benzopyrano[3,4f-]quinoline]: 6.25 nM and 1590 nM.
For `COc1cccc2c1-c1ccc3c(c1C(c1cc(C)cc(C(C)=O)c1)O2)C(C)=CC(C)(C)N3` (stereo not shown) [Example 110, 1-[3-(2,5-Dihydro-10-methoxy-2,2,4-trimethyl-1H-[1]benzopyrano[3,4-f]quinolin-5-yl)-5-methylphenyl]ethanone] the same measures were 5.6 nM and no less than 10000 nM.
On to `COc1cccc2c1-c1ccc3c(c1C(c1cccc(NCc4ccccc4)c1)O2)C(C)=CC(C)(C)N3` (stereo not shown) [Example 119, N-[3-(2,5-Dihydro-10-methoxy-2,2,4-trimethyl-1H-[1]benzopyrano[3,4-f]quinolin-5-yl)phenyl]benzenemethanamine], for which the Ki in assay [1] is 6.9 nM; in assay [2], no less than 10000 nM.
Take `COc1cccc2c1-c1ccc3c(c1C(c1cccc(C(F)(F)F)c1)O2)C(C)=CC(C)(C)N3` (stereo not shown) [Example 21, 2,5-Dihydro-10-methoxy-2,2,4-trimethyl-5-[3-(trifluoromethyl)phenyl]-1H-[1]benzopyrano[3,4-f]quinoline]: the inhibition constant (Ki) in assay [1] was determined as 10.7 nM; in assay [2], 4020 nM.
Regarding `C=C(CCl)CC1Oc2cccc(OC)c2-c2ccc3c(c21)C(C)=CC(C)(C)N3` (stereo not shown) [Example 48, 5-[2-(Chloromethyl)-2-propenyl]-2,5-dihydro-10-methoxy-2,2,4-trimethyl-1H-[1]benzopyrano[3,4-f]quinoline], the results for the Ki in assay [1] and in assay [2] were 5.8 nM and 2770 nM, respectively.
For `CC1=C[C@H]([C@@H]2Oc3ccc(O)c(Cl)c3-c3ccc4c(c32)C(C)=CC(C)(C)N4)CCC1` [Example 418] the same measures were 1.4 nM and 2.1 nM.
For `C=CCC1Oc2cccc(OC(F)(F)Br)c2-c2ccc3c(c21)C(C)=CC(C)(C)N3` (stereo not shown) [Example 83, 10-(Bromodifluoromethoxy)-2,5-dihyro-2,2,4-trimethyl-5-(2-propenyl)-1H-[1]benzopyrano[3,4-f]quinoline] the same measures were 54.8 nM and 2210 nM.
Consider `COc1cccc2c1-c1ccc3c(c1CO2)C(C)=CC(C)(C)N3` [Example 38, 2,5-Dihydro-10-methoxy-2,2,4-trimethyl-1H-[1]benzopyrano[3,4-f]quinoline], for which the Ki in assay [1] is 207 nM; in assay [2] it was no less than 10000 nM.
The matching figures for `COc1c(OC(=O)CCC(=O)N(C)C)ccc2c1-c1ccc3c(c1C(c1cc(F)c(F)c(F)c1)O2)C(C)=CC(C)(C)N3` (stereo not shown) [Example 381, 2,5-Dihydro-9-(4-N,N-dimethylamino-4-oxo-butanoyloxy)-10-methoxy-2,2,4-trimethyl-5-(3,4,5-trifluorophenyl)-1H-[1]benzopyrano[3,4-f]quinoline]: 7.1 nM and 9820 nM.
For `COc1c(O)ccc2c1-c1ccc3c(c1[C@@H]([C@H]1C=CCCC1)O2)C(C)=CC(C)(C)N3` [Example 285] the same measures were 436 nM and 3760 nM.
As for `COc1cccc2c1-c1ccc3c(c1C(=Cc1cc(Cl)cc(Cl)c1)O2)C(C)=CC(C)(C)N3` [Example 120, 5-[(3,5-dichlorphenyl)methylen]-2,5-dihydro-10-methoxy-2,2,4-trimethyl-1H-[1]benzopyrano[3,4-f]puinoline], the inhibitory constant (Ki) is 30.3 nM in assay [1] and 6240 nM in assay [2].
The matching figures for `COc1ccc(Br)c2c1-c1ccc3c(c1C(C1C=C(C)CCC1)O2)C(C)=CC(C)(C)N3` (stereo not shown) [Example 299]: 5.4 nM and 2900 nM.
